This passage reports MIC results from US10471046B2, “Method for treating, preventing, or reducing the risk of skin infection” (Melinta Subsidiary Corp., priority 2014, dated 2019).

≈ marks a conversion by molar mass, not a printed value.

This test has as its system S. aureus. The test can be described thus: Minimum inhibitory concentrations (MICs) for S. aureus of exemplary compounds (Table 2). The note with it: Staphylococcus aureus, minimum inhibitory concentrations for S. aureus; read-out: MICs. The class given is cell-based. The method, boiled down:
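Growth of S. aureus in media with or without compound, by broth microdilution in microtiter trays following NCCLS M7-A5 guidelines. Values are MICs in μg/mL.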

For `CC(=O)NC[C@H]1CN(c2ccc(-c3ccc(CNC(=O)[C@@H]4C=CCN4C(=O)OC(C)(C)C)cc3)c(F)c2)C(=O)O1` [Compound 4305, 2-({4′-[5-(S)-(Acetylamino-methyl)-2-oxo-oxazolidin-3-yl]-2′-fluoro-biphenyl-4-ylmethyl}-carbamoyl)-2,5-dihydro-pyrrole-1-(S)-carboxylic acid tert-butylester], the MIC was 16 µg/mL (≈ 29 µM). Take `CC(=O)NC[C@H]1CN(c2ccc(-c3ccc(CNC(=O)C4CNCCN4)cc3)c(F)c2)C(=O)O1` (mixture of isomers) [Compound 4322, Piperazine-2-(R/S)-carboxylic acid {4′-[5-(S)-(acetylamino-methyl)-2-oxo-oxazolidin-3-yl]-2′-fluoro-biphenyl-4-ylmethyl}-amide]: the MIC was found to be 2 µg/mL. For `CC(=O)NC[C@H]1CN(c2ccc(-c3ccc(CNCCC4C=Nc5ccc(C)cc54)cc3)c(F)c2)C(=O)O1` (stereo partly drawn) [Compound 4228, N-[3-(2-Fluoro-4′-{[2-(5-methyl-3H-indol-3-yl)-ethylamino]-methyl}-biphenyl-4-yl)-2-oxo-oxazolidin-5-(S)-ylmethyl]-acetamide] the value was 2 µg/mL (≈ 3.89 µM); for `CC(=O)NC[C@H]1CN(c2ccc(-c3ccc(CN4CCN(CC(N)=O)CC4)cc3)c(F)c2)C(=O)O1` [Compound 1003, 2-(4-{4′-[5-(S)-(Acetylamino-methyl)-2-oxo-oxazolidin-3-yl]-2′-fluoro-biphenyl-4-ylmethyl}-piperazin-1-yl)-acetamide], 2 µg/mL (≈ 4.14 µM); for `CC(=O)NC[C@H]1CN(c2ccc(-c3ccc(Cn4ccc(C=O)c4)cc3)c(F)c2)C(=O)O1` [Compound 1055, N-{3-[2-Fluoro-4′-(3-formyl-pyrrol-1-ylmethyl)-biphenyl-4-yl]-2-oxo-oxazolidin-5-(S)-ylmethyl}-acetamide], 0.25 µg/mL (≈ 0.574 µM). Then `CC(=O)NC[C@H]1CN(c2ccc(-c3ccc(CN(C)Cc4ccoc4)cc3)c(F)c2)C(=O)O1` [Compound 4061, N-(3-{2-Fluoro-4′-[(furan-3-ylmethyl-methyl-amino)-methyl]-biphenyl-4-yl}-2-oxo-oxazolidin-5-(S)-ylmethyl)-acetamide], with 4 µg/mL (≈ 8.86 µM); and `CC(=O)NC[C@H]1CN(c2ccc(-c3ccc(CN(C)Cc4ccncc4)cc3)c(F)c2)C(=O)O1` [Compound 4044, N-(3-{2-Fluoro-4′-[(methyl-pyridin-4-ylmethyl-amino)-methyl]-biphenyl-4-yl}-2-oxo-oxazolidin-5-(S)-ylmethyl)-acetamide], with 1 µg/mL (≈ 2.16 µM). For the molecule `CC(=O)NC[C@H]1CN(c2ccc(-c3ccc(CNCc4ccncc4F)cc3)c(F)c2)C(=O)O1` [Compound 4179, N-[3-(2-Fluoro-4′-{[(3-fluoro-pyridin-4-ylmethyl)-amino]-methyl}-biphenyl-4-yl)-2-oxo-oxazolidin-5-(S)-ylmethyl]-acetamide], the MIC worked out at 2 µg/mL (≈ 4.29 µM).

As for `CC(=O)NC[C@H]1CN(c2ccc(-c3ccc(CN4CCN(CC#N)CC4)cc3)c(F)c2)C(=O)O1` [Compound 1004, N-{3-[4′-(4-Cyanomethyl-piperazin-1-ylmethyl)-2-fluoro-biphenyl-4-yl]-2-oxo-oxazolidin-5-(S)-ylmethyl}-acetamide], the MIC came to 2 µg/mL (≈ 4.3 µM). For `CC(=O)NC[C@H]1CN(c2ccc(-c3ccc(CNCCCSc4cnn[nH]4)cc3)c(F)c2)C(=O)O1` [Compound 5002, N-[3-(2-Fluoro-4′-{[3-(3H-[1,2,3]triazol-4-ylsulfanyl)-propylamino]-methyl}-biphenyl-4-yl)-2-oxo-oxazolidin-5-(S)-ylmethyl]-acetamide] the value was 0.25 µg/mL (≈ 0.501 µM); for `CC(=O)NC[C@H]1CN(c2ccc(-c3ccc(CSc4nnnn4CCN(C)C)cc3)c(F)c2)C(=O)O1` [Compound 2027, N-(3-{4′-[1-(2-Dimethylamino-ethyl)-1H-tetrazol-5-ylsulfanylmethyl]-2-fluoro-biphenyl-4-yl}-2-oxo-oxazolidin-5-(S)-ylmethyl)-acetamide], 1 µg/mL (≈ 1.95 µM); for `CC(=O)NC[C@H]1CN(c2ccc(-c3ccc(C(N)c4nn[nH]n4)cc3)c(F)c2)C(=O)O1` (mixture of isomers) [Compound 1040, N-(3-{4′-[Amino-(2H-tetrazol-5-(R/S)-yl)-methyl]-2-fluoro-biphenyl-4-yl}-2-oxo-oxazolidin-5-(S)-ylmethyl)-acetamide], 128 µg/mL (≈ 301 µM). Then `CC(=O)NC[C@H]1CN(c2ccc(-c3ccc(CNC(=O)c4ccc(F)cc4)cc3)c(F)c2)C(=O)O1` [Compound 4013, N-{4′-[5-(S)-(Acetylamino-methyl)-2-oxo-oxazolidin-3-yl]-2′-fluoro-biphenyl-4-ylmethyl}-4-fluoro-benzamide], with 8 µg/mL (≈ 16.7 µM). Turning to `CC(=O)NC[C@H]1CN(c2ccc(-c3ccc(CNCc4ccncc4)c(F)c3F)c(F)c2)C(=O)O1` [Compound 4089, N-[2-Oxo-3-(2,2′,3′-trifluoro-4′-{[(pyridin-4-ylmethyl)-amino]-methyl}-biphenyl-4-yl)-oxazolidin-5-(S)-ylmethyl]-acetamide], the MIC turned out to be 2 µg/mL (≈ 4.13 µM). For `CC(=O)NC[C@H]1CN(c2ccc(-c3ccc(CNCc4cccs4)cc3)c(F)c2)C(=O)O1` [Compound 4137, N-[3-(2-Fluoro-4′-{[(thiophen-2-ylmethyl)-amino]-methyl}-biphenyl-4-yl)-2-oxo-oxazolidin-5-(S)-ylmethyl]-acetamide] the value was 0.5 µg/mL (≈ 1.1 µM). In the case of `CC(=O)NC[C@H]1CN(c2ccc(-c3ccc(C(=O)NCc4ncon4)cc3)c(F)c2)C(=O)O1` [Compound 4224, 4′-[5-(S)-(Acetylamino-methyl)-2-oxo-oxazolidin-3-yl]-2′-fluoro-biphenyl-4-carboxylic acid ([1,2,4]oxadiazol-3-ylmethyl)-amide], the MIC worked out at 0.5 µg/mL (≈ 1.1 µM).

For `CC(=O)NC[C@H]1CN(c2ccc(-c3ccc([C@H](O)CN4CCN(C=O)CC4)cc3)c(F)c2)C(=O)O1` [Compound 1044, N-(3-{2-Fluoro-4′-[2-(4-formyl-piperazin-1-yl)-1-(S)-hydroxy-ethyl]-biphenyl-4-yl}-2-oxo-oxazolidin-5-(S)-ylmethyl)-acetamide], the MIC came to 0.5 µg/mL (≈ 1.03 µM).

Take `CC(=O)NC[C@H]1CN(c2ccc(-c3ccc(CSc4ccncc4)cc3)c(F)c2)C(=O)O1` [Compound 2019, N-{3-[2-Fluoro-4′-(pyridin-4-ylsulfanylmethyl)-biphenyl-4-yl]-2-oxo-oxazolidin-5-(S)-ylmethyl}-acetamide]: the MIC came out at 1 µg/mL (≈ 2.21 µM). Then `CC(=O)NC[C@H]1CN(c2ccc(-c3ccc(CNCc4ccnc5ccccc45)cc3)c(F)c2)C(=O)O1` [Compound 4016, N-[3-(2-Fluoro-4′-{[(quinolin-4-ylmethyl)-amino]-methyl}-biphenyl-4-yl)-2-oxo-oxazolidin-5-(S)-ylmethyl]-acetamide], with 1 µg/mL (≈ 2.01 µM). Then `CC(=O)NC[C@H]1CN(c2ccc(-c3ccc(CNCCN4CCCC4)cc3)c(F)c2)C(=O)O1` [Compound 4259, N-(3-{2-Fluoro-4′-[(2-pyrrolidin-1-yl-ethylamino)-methyl]-biphenyl-4-yl}-2-oxo-oxazolidin-5-(S)-ylmethyl)-acetamide], with 4 µg/mL (≈ 8.8 µM); and `CC(=O)NC[C@H]1CN(c2ccc(-c3ccc(CSCc4ccncc4)cc3)c(F)c2)C(=O)O1` [Compound 4211, N-{3-[2-Fluoro-4′-(pyridin-4-ylmethylsulfanylmethyl)-biphenyl-4-yl]-2-oxo-oxazolidin-5-(S)-ylmethyl}-acetamide], with 0.25 µg/mL (≈ 0.537 µM).
